Source: PMC12323867 (RSC Medicinal Chemistry, 2025)
Read-outs that look alike come from different tables or passages of the source. Each block holds one compound with its values, some of them ahead of it.

What was measured:
[1] = target: T1, LSD1-HDAC1-CoREST complex (Homo sapiens, UniProt O60341); test: LSD1 HRP-coupled demethylase assay, SP2509/SP2577 analogues; format: biochemical
T1 construct: full length native LSD1 (UniProt ID: O60341); made in house; host or cells: HEK 293F cells (co-transfection, pcDNA3 vectors)
Experimental: The analogues synthesised were then tested for their ability to inhibit LSD1 using purified LSD1-HDAC1-CoREST complex (Fig. 2B). We used an established fluorescent read out horseradish peroxidase (HRP) assay to monitor LSD1 enzymatic activity in the CoREST complex[8] (see ESI ^† for full details).
(§1) 2. Supplementary Information: Biology
(§2) 2.1. LSD-HDAC1-CoREST expression and purification
(§3) Lysis Buffer (Buffer A) Wash Buffer (Buffer B)
(§4) • 50 mM Tris/Cl pH 7.5 • 50 mM Tris/Cl pH 7.5
(§5) • 50 mM Potassium Acetate • 50 mM Potassium Acetate […]
(§6) Cleavage Buffer (Buffer C) Gel Filtration Buffer (Buffer D)
(§7) • 50 mM Tris/Cl pH 7.5 Filtered at vacuum.
(§8) • 50 mM Potassium Acetate • 50 mM Tris/Cl pH 7.5
(§9) • 5 % v/v Glycerol • 50 mM Potassium Acetate
(§10) • 0.5 mM tris(2- • 0.5 mM TCEP carboxyethyl)phosphine (TCEP)
(§11) The CoREST ternary complex was comprised of full length native LSD1 (UniProt ID: O60341), full length HDAC1 (UniProt ID: Q13547) and N-terminally truncated RCOR1 (86-485aa) (UniProt ID:
(§12) Q9UKL0). Protein constructs were cloned into pcDNA3 vector. The RCOR1 constructs contained an N-terminal (His)10(Flag)3 tag followed by a Tev protease cleavage site. The constructs for ternary complex were co-transfected into suspension-grow HEK 293F cells (Thermofisher Scientific) with polyethylenimine (PEI) (Sigma) and harvested after 48 hours. This section of the procedure was carried out as described previously in literature.11,12
(§13) Cell pellets from 1.2 L culture were defrosted, and buffer A (30 mL) was added. The solution was sonicated (Soniprep 150) in an beaker of ice using a 9 mm probe at 10 ampules; operated with 10 […]
2.2. SP2509/SP2577 analogues LSD1 HRP-coupled demethylase assay protocol The commercial reagents for the assay were HRP and Amplex® Ultrared, which are available to purchase from ThermoFisher (31490) and Invitrogen (10737474), respectively. HRP was made up to 8 mg/mL stock solution in 1xPBS buffer, divided into 10 µL aliquots, snap-frozen in liquid nitrogen and stored at -80 °C. Amplex® Ultrared was made up to 10 mM solution in DMSO, divided into 20 µL aliquots and wrapped in foil, away from light and stored at -20 °C. For each assay experiment, CoREST complex was diluted to 500 nM in assay buffer (20 mM HEPES pH 7.5 and 50 mM NaCl).
HRP was defrosted by diluting each aliquot in 90 µL 1xPBS solution, making a 0.8 mg/mL solution.
Amplex® Ultrared was made up to 200 µM in assay buffer. HRP and Amplex® Ultrared were pre-mixed before addition to the plate. H3K4Me2 substrate (4 mM in deionised water) was diluted to 300 µM in assay buffer. All stocks were stored on ice during assay preparation.
The assay was carried out using a ‘black well’ 96 well plate (Corning no. 3915) in a reaction volume of 100 μL. The final concentrations in the assay were as follows: 50 nM CoREST complex, 10 μM Amplex® UltraRed, 0.04 mg/mL HRP and 15 μM H3K4Me2 peptide substrate. The final DMSO concentration in each well was 1.1 %. Three wells of each experiments were designated ‘background controls’ and contained 85 μL assay buffer, premixed Amplex® UltraRed and HRP (10 µL) and H3K4Me peptide substrate (300 μM, 5 µL).
A stock solution of inhibitor (1 -5 mM in DMSO) was subjected to an inhibitor dilution series, in Eppendorf tubes, in 100 % DMSO. Each new inhibitor stock (4 μL) was diluted in assay buffer (1 in 75) within a new Eppendorf set with assay buffer (20 mM HEPES pH 7.5 and 50 m M NaCl), ensuring the percentage of DMSO was consistent throughout the series. To each well of interest, Inhibitor in assay buffer (75 μL) was added, and CoREST complex (500 nM, 10 µL) was added thereafter. The plate was placed on a rocker and pre -incubated for 30 mins. To each well, premixed Amplex® UltraRed and HRP (10 µL) was added before H3K4Me 2 peptide substrate in assay buffer solution (300 μM, 5 µL) was added to the wall of the plate. The plate was covered in foil and spun down for one minute before being placed in the plate reader. The final percentage concentration of DMSO in […]

H3K4me2 in HCT116 cells = test: Histone methylation H3K4me2 by western blot; format: cell-based, human; conditions: HCT116, 0.1–10 μM, 24 hours, H3K4me2 antibody
Experimental: We next screened 25–33 and SP2509 over a concentration range of 0.1–10 μM in HCT116 cells (obtained from ATCC, CCL-247) and determined LSD1 abundance after 24 hours with an antibody for LSD1 (Fig. S4 ^†). […] Using the same conditions, we also determined the effects of SP2509, 25, 27, 28, 30 and 31 on histone H3 lysine 4 dimethyl (H3K4me2) a validated substrate for LSD1 using a specific antibody for H3K4me2 (Fig. S4 ^†).
Compounds 39–41, 49, 52 and 54 were screened for LSD1 degradation in HCT116 cells using a specific antibody for LSD1. This was performed side-by-side with TCP. Compounds were tested at concentration ranges of 0.2–20 μM and LSD1 abundance was quantified at 24 hours (Fig. S5 ^†). 49, 52 and 54 were also evaluated at 48 and 72 hours. […] We also determined the effects of these compounds on the histone methyl marker H3K4me2 (Fig. S5 and S6 ^†).
2.5 Protocols for LSD1 degradation and histone methylation in HCT116 cells HCT116 human colon carcinoma cells were grown in Dulbecco’s Modified Eagle Medium (DMEM) supplemented with Fetal Bovine Serum (FBS, 10% final concentration) and 1x glutamine/penicillin/streptomycin. Cells were incubated at 37 °C and 5% CO2. Cells were treated with compounds (0.1-20 µM) with a final DMSO volume of 0.04%. DMSO (0.04%) treated and untreated (WT) cells were included as controls.
HCT116 cells were seeded into six well plates (400000 cells per well) and after requisite compound treatment time (24h, 48h, 72h) cells were harvested and either snap-frozen in liquid nitrogen or lysed in lysis buffer (50mM Tris-HCl, 150 mM NaCl, 0.5% NP-40, 0.5% Triton X-100 + protease inhibitor) on ice for 30 mins. This was centrifuged (15000 rpm, 4 °C, 15 mins) and the supernatant collected.
H2SO4 (0.4 M, equal volume) was added to the pellets for histone extraction and the tubes incubated overnight at 4 °C. Following this, the histone extract was centrifuged (15000 rpm, 4 °C, 15 mins) and the supernatant collected. Protein concentrations of whole cell extract were quantified via Bradford Assay using BIO-RAD Protein Assay Dye Reagent Concentrate.
Western blots were run on NuPAGE 4-12% Bis-Tris gels, with 30 µg of protein (whole cell extract) or an equivalent volume of histone extract loaded per lane, with all extracts dyed with 4x NuPAGE LDS Sample Buffer. PageRuler Plus Prestained Ladder was used as a reference. Gel electrophoresis was carried out at 140 V for 60-90 mins, following which the proteins were transferred onto nitrocellulose membrane at 30 V for 60 mins. Membranes were blocked in LI-COR Intercept Blocking Buffer overnight at RT on a roller, following which the membrane was probed with primary antibodies for 1 h at RT. The membrane was washed with PBS + 0.1% Tween (3 x 10 mins), then incubated with secondary antibodies for 50 mins at RT. The membrane was washed again (PBS Tween 2 x 10 mins, PBS 1 x 10 mins) following which the blot was visualised with the Odyssey Infrared Imaging System. Image processing and quantification was performed with ImageStudio Lite. […]
a-tubulin (mouse) – Sigma, t5168 (1:10000 dilution)

[2] = target: T2, HDAC1-CoREST-LSD1 complex (Homo sapiens, UniProt O60341); test: LSD1 HRP-coupled demethylase assay, TCP analogues; format: biochemical; conditions: for LSD1 inhibition at 50 μM: single concentration 50 μM, compared to no compound treatment control
T2 construct: full length native LSD1 (UniProt ID: O60341); made in house; host or cells: HEK 293F cells (co-transfection, pcDNA3 vectors)
Experimental: We then evaluated LSD1 inhibition in the LSD1-HDAC1-CoREST complex using the established horseradish peroxidase (HRP) assay.[8]
as §1, §2, §3, §4, §5, §6, §7, §8, §9, §10, §11, §12, §13
Components and concentrations for the HRP-coupled demethylase assay […]
The assay components are shown at their final concentrations per well in the table above. CoREST complex (HDAC 1/RCOR1/LSD1) was added to the assay buffer alongside either DMSO or the relevant inhibitor at the desired concentration on black-walled 96 well plates. Alongside this was another control, with DMSO but no CoREST or inhibitor. Plates were spun to 3000 rpm between each addition of a reagent. Plates were incubated at 20 °C for 30 mins, following which HRP/Amplex Ultrared (1:1 mixture) and peptide was added. Plates were spun, then read on an PerkinElmer 2030 Explorer plate reader, with excitation of 530 nm and […] of 590 nm, with 7 readings taken over […]
Components, where bought in, are listed below:
HRP – Pierce™ Horseradish Peroxidase, Invitrogen
H3K4me2 peptide – Histone H3 dimethyl lysine-4 peptide, Enzo Life Sciences Amplex UltraRed, ThermoFisher Scientific
To the assay buffer was added HRP/AMP in each well to concentrations equal to those in above, following which hydrogen peroxide solution (diluted from 3% hydrogen peroxide solution into a 20 mM stock) was added, in a 1 in 3 dilution series with final concentrations starting from 3 mM.
Negative control wells contained either 100% buffer or as above with no hydrogen peroxide solution.

[3] = LSD1 enzymatic activity, complex 50 nM, HRP assay, SP2509 value is mean of three sets, read-out: LSD1-HDAC1-CoREST IC50
[4] = per parallel set, each set with SP2509 as reference standard, read-out: IC50 from dose response curves (Figure S1)

Compound: COc1ccc(O)c(C(C)=NNC(=O)c2cccc(S(=O)(=O)N3CCOCC3)c2)c1 [compound 8]
- IC50 [1, 3]: 14.5 nM
- IC50 [1, 4]: 15 nM

Compound: COc1ccc(O)c(C=NNC(=O)c2cccc(S(=O)(=O)N3CCOCC3)c2)c1 [compound 9]
- IC50 [1, 3]: 12.8 nM
- IC50 [1, 4]: 13 nM

Compound: COc1ccc(C(C)=NNC(=O)c2cccc(S(=O)(=O)N3CCOCC3)c2)c(O)c1 [compound 10]
- IC50 [1, 3]: 12.4 nM
- IC50 [1, 4]: 12 nM

Compound: C/C(=N\NC(=O)c1cccc(S(=O)(=O)N2CCOCC2)c1)c1cc(OCCOCCC(=O)N[C@H](C(=O)N2C[C@H](O)C[C@H]2C(=O)NCc2ccc(-c3scnc3C)cc2)C(C)(C)C)ccc1O [compound 25]
- H3K4me2 abundance (H3K4me2 in HCT116 cells): no increase in H3K4me2

Compound: C/C(=N\NC(=O)c1cccc(S(=O)(=O)N2CCOCC2)c1)c1cc(OCCCC(=O)N[C@H](C(=O)N2C[C@H](O)C[C@H]2C(=O)NCc2ccc(-c3scnc3C)cc2)C(C)(C)C)ccc1O [compound 27]
- H3K4me2 abundance (H3K4me2 in HCT116 cells): no increase in H3K4me2

Compound: C/C(=N\NC(=O)c1cccc(S(=O)(=O)N2CCOCC2)c1)c1cc(OCCCCCCCC(=O)N[C@H](C(=O)N2C[C@H](O)C[C@H]2C(=O)NCc2ccc(-c3scnc3C)cc2)C(C)(C)C)ccc1O [compound 28]
- H3K4me2 abundance (H3K4me2 in HCT116 cells): no increase in H3K4me2

Compound: C/C(=N\NC(=O)c1cccc(S(=O)(=O)N2CCOCC2)c1)c1cc(OCCOCCC(=O)NCCNc2cccc3c2C(=O)N(C2CCC(=O)NC2=O)C3=O)ccc1O (centres unmarked) [compound 30]
- H3K4me2 abundance (H3K4me2 in HCT116 cells): no increase in H3K4me2

Compound: C/C(=N\NC(=O)c1cccc(S(=O)(=O)N2CCOCC2)c1)c1cc(OCCOCCOCCC(=O)NCCNc2cccc3c2C(=O)N(C2CCC(=O)NC2=O)C3=O)ccc1O (centres unmarked) [compound 31]
- H3K4me2 abundance (H3K4me2 in HCT116 cells): no increase in H3K4me2

The next lines start with the values.

- IC50 ([1]; LSD1 enzymatic activity, complex 50 nM, HRP assay, read-out: LSD1-HDAC1-CoREST IC50): > 20000 nM
Compound: CC(=NNC(=O)c1cccc(S(=O)(=O)N2CCN(C(=O)OC(C)(C)C)CC2)c1)c1cc(Cl)ccc1O [compound 11]

- IC50 [1, 3]: 113 nM
Compound: C/C(=N\NC(=O)c1cccc(S(=O)(=O)N2CCOCC2)c1)c1ccc(OCCOCCC(=O)OC(C)(C)C)cc1O [compound 12]

- IC50 [1, 3]: 159 nM
Compound: C/C(=N\NC(=O)c1cccc(S(=O)(=O)N2CCOCC2)c1)c1cc(OCCOCCC(=O)OC(C)(C)C)ccc1O [compound 13]

- IC50 [1, 3]: 20.6 nM
- IC50 [1, 4]: 21 nM
Compound: C/C(=N\NC(=O)c1cccc(S(=O)(=O)N2CCNCC2)c1)c1cc(Cl)ccc1O [compound 14]

- IC50 [1, 3]: 108 nM
Compound: C/C(=N\NC(=O)c1cccc(S(=O)(=O)N2CCN(CCOCCC(=O)OC(C)(C)C)CC2)c1)c1cc(Cl)ccc1O [compound 15]

- LSD1 inhibition at 50 μM ([2]; complex 50 nM): modest inhibition
Compound: Cc1ncsc1-c1ccc(CNC(=O)[C@@H]2C[C@@H](O)CN2C(=O)[C@@H](NC(=O)CCCCC(=O)NC2CC2c2ccccc2)C(C)(C)C)cc1 (some centres unmarked) [compound 38]

- LSD1 inhibition at 50 μM ([2]; complex 50 nM): not LSD1 inhibitors
Compound: Cc1ncsc1-c1ccc(CNC(=O)[C@@H]2C[C@@H](O)CN2C(=O)[C@@H](NC(=O)CCCCCCCCCCC(=O)NC2CC2c2ccccc2)C(C)(C)C)cc1 (some centres unmarked) [compound 39]

- LSD1 inhibition at 50 μM ([2]; complex 50 nM): not LSD1 inhibitors
Compound: O=C(CCCCC(=O)NC1CC1c1ccccc1)NCCNc1cccc2c1C(=O)N(C1CCC(=O)NC1=O)C2=O (centres unmarked) [compound 40]

- LSD1 inhibition at 50 μM ([2]; complex 50 nM): not LSD1 inhibitors
Compound: O=C(CCCCCCCCCCC(=O)NC1CC1c1ccccc1)NCCNc1cccc2c1C(=O)N(C1CCC(=O)NC1=O)C2=O (centres unmarked) [compound 41]

- IC50 ([2]; complex 50 nM, mean ± SD from three replicates): 94 nM
- enhancement in LSD1 inhibition compared to TCP ([2]; ratio of IC50 values): approximately 100 fold
Compound: COC(=O)c1ccc([C@@H]2C[C@H]2N)cc1 [compound 55]
